Laboratory results taken from paper PMC11555526, “Development of 2-Aminoadenine-Based Proteolysis-Targeting Chimeras (PROTACs) as Novel Potent Degraders of Monopolar Spindle 1 and Aurora Kinases” (ACS Pharmacology & Translational Science, 2024).

Assays:
[1] = biological target: T1, AURKA (Homo sapiens, UniProt O14965); assay: Immunoblot of AURKA in HiBiT-TTK cells; assay type: cell-based; conditions: 6 h
T1 construct: endogenous in cells; host or cells: MV4-11 HiBiT-TTK cells (AURKA not transduced)
T1 sequence (O14965 1-403): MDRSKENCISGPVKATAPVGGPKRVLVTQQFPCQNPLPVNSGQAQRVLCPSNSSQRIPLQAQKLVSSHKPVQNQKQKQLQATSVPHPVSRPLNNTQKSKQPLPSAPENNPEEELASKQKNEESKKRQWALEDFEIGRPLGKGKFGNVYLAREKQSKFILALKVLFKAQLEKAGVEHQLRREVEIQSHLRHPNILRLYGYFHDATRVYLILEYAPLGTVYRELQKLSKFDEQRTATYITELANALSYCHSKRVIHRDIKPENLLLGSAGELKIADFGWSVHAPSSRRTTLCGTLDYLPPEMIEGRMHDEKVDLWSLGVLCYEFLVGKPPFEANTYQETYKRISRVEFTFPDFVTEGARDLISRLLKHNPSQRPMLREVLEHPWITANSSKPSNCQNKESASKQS
Protocol: The cells were treated with compounds or vehicle for indicated time points and lysed in RIPA lysis buffer (50 mM HEPES pH 7.9, 140 mM NaCl, 1 mM EDTA, 1% Triton X-100, 0.1% SDS, 0.1% sodium deoxycholate) containing protease and phosphatase inhibitors (Sigma) for 20 min at 4 °C. Cell lysates were cleared by centrifugation, and protein concentration was determined with bicinchoninic acid assay. Equal amounts of protein per sample were separated by Bis-Tris-PAGE and transferred to PVDF membranes (Millipore). The membranes were blocked with 5% (w/v) nonfat dry milk in TBS-T [20 mM Tris–HCl, pH 7.5, 150 mM NaCl, 0.1% (v/v) Tween-20] for 1 h at room temperature and incubated with primary antibody at 4 °C overnight. Visualization was carried out using horseradish peroxidase (HRP)-labeled secondary antibodies and detected using a chemiluminescent HRP substrate (Millipore) in LAS3000 or LAS4000 mini (Fujifilm). Vinculin, GAPDH, or B-actin were used as a loading control. […] The signal was quantified using ImageJ or Image Studio Lite against the corresponding loading controls. […]
Figure S2: Cellular degradation studies of SF1-based compounds. […] Indicated MV4-11 HiBiT cells were treated with different concentrations of 15 (B), and 28 (C) for 6 h, lysed, complemented with the large luciferase fragment (largeBiT), and luciferase 27 (A), activity was measured. […]

[2] = biological target: T2, TTK (Homo sapiens, UniProt P33981); assay: Immunoblot of TTK in HiBiT-TTK cells; assay type: cell-based; set-up: endogenous in cells; host or cells: naive MV4-11; conditions: 6 h, 10 µM
T2 sequence (P33981 1-857): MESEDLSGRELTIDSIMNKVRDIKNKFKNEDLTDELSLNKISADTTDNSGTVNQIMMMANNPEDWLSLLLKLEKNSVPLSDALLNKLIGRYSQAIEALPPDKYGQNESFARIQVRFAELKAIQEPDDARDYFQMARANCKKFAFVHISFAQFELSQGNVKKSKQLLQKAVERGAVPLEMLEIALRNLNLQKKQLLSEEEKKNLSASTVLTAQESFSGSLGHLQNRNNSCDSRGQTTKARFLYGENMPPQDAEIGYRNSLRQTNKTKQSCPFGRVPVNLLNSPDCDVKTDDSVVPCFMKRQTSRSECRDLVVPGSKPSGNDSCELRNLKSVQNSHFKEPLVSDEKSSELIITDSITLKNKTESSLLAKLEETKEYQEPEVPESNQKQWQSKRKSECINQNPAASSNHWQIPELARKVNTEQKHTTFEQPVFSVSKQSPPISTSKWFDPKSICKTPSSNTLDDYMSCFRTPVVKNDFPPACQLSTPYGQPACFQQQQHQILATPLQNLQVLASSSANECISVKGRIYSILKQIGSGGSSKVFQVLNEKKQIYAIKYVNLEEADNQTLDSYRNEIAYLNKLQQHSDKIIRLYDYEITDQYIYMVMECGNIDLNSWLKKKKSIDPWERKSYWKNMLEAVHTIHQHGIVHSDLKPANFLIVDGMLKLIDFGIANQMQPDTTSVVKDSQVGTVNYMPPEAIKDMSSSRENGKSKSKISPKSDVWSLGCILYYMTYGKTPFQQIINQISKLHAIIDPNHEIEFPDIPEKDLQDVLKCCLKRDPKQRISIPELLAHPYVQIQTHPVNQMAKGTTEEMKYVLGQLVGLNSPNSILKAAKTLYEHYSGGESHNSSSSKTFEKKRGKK
Protocol: The cells were treated with compounds or vehicle for indicated time points and lysed in RIPA lysis buffer (50 mM HEPES pH 7.9, 140 mM NaCl, 1 mM EDTA, 1% Triton X-100, 0.1% SDS, 0.1% sodium deoxycholate) containing protease and phosphatase inhibitors (Sigma) for 20 min at 4 °C. Cell lysates were cleared by centrifugation, and protein concentration was determined with bicinchoninic acid assay. Equal amounts of protein per sample were separated by Bis-Tris-PAGE and transferred to PVDF membranes (Millipore). The membranes were blocked with 5% (w/v) nonfat dry milk in TBS-T [20 mM Tris–HCl, pH 7.5, 150 mM NaCl, 0.1% (v/v) Tween-20] for 1 h at room temperature and incubated with primary antibody at 4 °C overnight. Visualization was carried out using horseradish peroxidase (HRP)-labeled secondary antibodies and detected using a chemiluminescent HRP substrate (Millipore) in LAS3000 or LAS4000 mini (Fujifilm). Vinculin, GAPDH, or B-actin were used as a loading control. The loading control was probed along with the target antibody by cutting the membrane. For targets with similar molecular weights, the samples were run in duplicate and probed with their respective loading controls, although only one control was shown in the figure for all targets. The signal was quantified using ImageJ or Image Studio Lite against the corresponding loading controls. […]

relative AURKA level (immunoblot quantification, vehicle = 1.00) ([1]; 0.16 µM): 1.00
relative AURKA level (immunoblot quantification, vehicle = 1.00) ([1]; 10 µM): 0.87
relative TTK level (immunoblot quantification, vehicle = 1.00) [2]: 0.48
Structure (SMILES): Cc1ncsc1-c1ccc(CNC(=O)[C@@H]2C[C@@H](O)CN2C(=O)[C@@H](NC(=O)COCCOCC(=O)N2CCN(c3ccc(Nc4nc(Nc5ccccc5S(=O)(=O)C(C)C)c5nc[nH]c5n4)cc3)CC2)C(C)(C)C)cc1 [Compound 49]
